Values joined by “and” are separate entries in the source; they are usually repeats but may differ in a detail not shown here. Identical values can stand only once.
SMILES | melting point
NC(=O)[C@H]1CN(c2ccc(C3CCS(=O)(=O)CC3)cc2)C(=O)O1 [Example 458, (5R)-(−)-3-[4-(tetrahydro-2H-thiopyran-4-yl)phenyl]-2-oxo-5-oxazolidinecarboxamide S,S-dioxide] | 211 to 212 °C
O=C(NO)[C@H]1CN(c2ccc(N3CCOCC3)c(F)c2)C(=O)O1 [Example 440, (5R)-(−)-3-[3-Fluoro-4-(4-morpholinyl)phenyl]-N-hydroxy-2-oxo-5-oxazolidinecarboxamide] | 141 to 143 °C
NC(=O)[C@H]1CN(c2ccc(N3CC[S+]([O-])CC3)c(F)c2)C(=O)O1 [Example 454, (5R)-(−)-3-[3-Fluoro-4-(thiomorpholin-4-yl)phenyl]-2-oxo-5-oxazolidinecarboxamide S-oxide] | 264 to 266 °C (dec.)
NC(=O)[C@H]1CN(c2ccc(N3CCS(=O)(=O)CC3)cc2)C(=O)O1 [Example 452, (5R)-(−)-3-[4-(Thiomorpholin-4-yl)phenyl]-2-oxo-5-oxazolidinecarboxamide S,S-dioxide] | 226 to 228 °C
NC(=O)[C@H]1CN(c2ccc([C@H]3CC[S@+]([O-])CC3)c(F)c2)C(=O)O1 [Example 457, (5R)-3-[3-Fluoro-4-(trans-tetrahydro-1-oxido-2H-thiopyran-4-yl)phenyl]-2-oxo-5-oxazolidinecarboxamide] | 201 to 203 °C
NC(=O)[C@H]1CN(c2ccc([C@H]3CC[S@@+]([O-])CC3)cc2)C(=O)O1 [Example 459, (5R)-3-[4-(cis-tetrahydro-1-oxido-2H-thiopyran-4-yl)phenyl]-2-oxo-S-oxazolidinecarboxamide] | 269 to 273 °C (dec.)
NC(=O)[C@H]1CN(c2ccc(N3CCOCC3)c(F)c2)C(=O)O1 [Example 435, (5R)-(−)-3-[3-Fluoro-4-(4-morpholinyl)phenyl]-2-oxo-5-oxazolidinecarboxamide] | 185 to 187 °C (dec.)
NC(=O)[C@H]1CN(c2ccc([C@H]3CC[S@+]([O-])CC3)cc2)C(=O)O1 (racemic) [Example 460, (SR)-3-[4-(trans-tetrahydro-1-oxido-2H-thiopyran-4-yl)phenyl]-2-oxo-5-oxazolidinecarboxamide] | 174 to 175 °C
NC(=O)[C@H]1CN(c2ccc(C3=CCOCC3)c(F)c2)C(=O)O1 [Example 443, (5R)-(−)-3-[4-(3,6-Dihydro-2H-pyran-4-yl)-3-fluorophenyl]-2-oxo-5-oxazolidinecarboxamide] | 164 to 169 °C
CONC(=O)[C@H]1CN(c2ccc(N3CCOCC3)c(F)c2)C(=O)O1 [Example 439, (5R)-(−)-3-[3-Fluoro-4-(4-morpholinyl)phenyl]-N-methoxy-2-oxo-5-oxazolidinecarboxamide] | 206 to 208 °C (dec.)
C=CCNC(=O)[C@H]1CN(c2ccc(N3CCOCC3)c(F)c2)C(=O)O1 [Example 437, (5R)-(−)-3-[3-Fluoro-4-(4-morpholinyl)phenyl]-N-allyl-2-oxo-5-oxazolidinecarboxamide] | 167 to 169 °C
NC(=O)[C@H]1CN(c2ccc(C3CCS(=O)(=O)CC3)c(F)c2)C(=O)O1 [Example 447, (5R)-(−)-3-[4-(Tetrahydro-2H-thiopyran-4-yl)-3-fluorophenyl]-2-oxo-5-oxazolidinecarboxamide S,S-dioxide] | 231 to 234 °C (dec.) and 229 to 231 °C (dec.)
NC(=O)[C@H]1CN(c2ccc(N3CCN(C(=O)CO)CC3)c(F)c2)C(=O)O1 [Example 448, (5R)-(−)-3-[3-Fluoro-4-[4-(hydroxyacetyl)-1-piperazinyl]phenyl]-2-oxo-5-oxazolidinecarboxamide] | 232 to 235 °C (dec.)

Other lines, results leading:

melting point | SMILES
206 to 208 °C | NC(=O)[C@H]1CN(c2ccc(C3=CCS(=O)(=O)CC3)c(F)c2)C(=O)O1 [Example 446, (5R)-(−)-3-[4-(3,6-Dihydro-2H-thiopyran-4-yl)-3-fluorophenyl]-2-oxo-5-oxazolidinecarboxamide S,S-dioxide]
273 to 276 °C (dec.) | NC(=O)[C@H]1CN(c2cc(F)c(N3CC[S+]([O-])CC3)c(F)c2)C(=O)O1 [Example 455, (5R)-(−)-3-[3,5-Difluoro-4-(thiomorpholin-4-yl)phenyl]-2-oxo-5-oxazolidinecarboxamide S-oxide]
240 to 242 °C (dec.) | NC(=O)[C@H]1CN(c2ccc(-c3cccnc3)c(F)c2)C(=O)O1 [Example 441, (5R)-(−)-3-[4-(3-Pyridyl)-3-fluorophenyl]-2-oxo-5-oxazolidinecarboxamide]
279 to 281 °C (dec.) | NC(=O)[C@H]1CN(c2ccc([C@H]3CC[S@@+]([O-])CC3)c(F)c2)C(=O)O1 (racemic) [Example 456, (SR)-3-[3-Fluoro-4-(cis-tetrahydro-1-oxido-2H-thiopyran-4-yl)phenyl]-2-oxo-5-oxazolidinecarboxamide]
245 to 247 °C (dec.) | NC(=O)[C@H]1CN(c2ccc(N3CCS(=O)(=O)CC3)c(F)c2)C(=O)O1 [Example 453, (5R)-(−)-3-[3-Fluoro-4-(thiomorpholin-4-yl)phenyl]-2-oxo-5-oxazolidinecarboxamide S,S-dioxide]
256 to 259 °C (dec.) | NC(=O)[C@H]1CN(c2ccc(-c3ccncc3)c(F)c2)C(=O)O1 [Example 442, (5R)-(−)-3-[4-(4-Pyridyl)-3-fluorophenyl]-2-oxo-5-oxazolidinecarboxamide]
182 to 184 °C (dec.) | NC(=O)[C@H]1CN(c2ccc(C3=CC[S+]([O-])CC3)c(F)c2)C(=O)O1 (stereo partly drawn) [Example 445, (5R)-3-[4-(3,6-Dihydro-2H-thiopyran-4-yl)-3-fluorophenyl]-2-oxo-5-oxazolidinecarboxamide S-oxide]
165 to 167 °C | CCCNC(=O)[C@H]1CN(c2ccc(N3CCOCC3)c(F)c2)C(=O)O1 [Example 438, (5R)-(−)-3-[3-Fluoro-4-(4-morpholinyl)phenyl]-N-propyl-2-oxo-5-oxazolidinecarboxamide]
245 to 248 °C (dec.) | NC(=O)[C@H]1CN(c2cc(F)c(N3CCS(=O)(=O)CC3)c(F)c2)C(=O)O1 [Example 449, (5R)-(−)-3-[4-(Thiomorpholin-4-yl)-3,5-difluorophenyl]-2-oxo-5-oxazolidinecarboxamide S,S-dioxide]
153 to 156 °C | NC(=O)[C@H]1CN(c2ccc(C3CCOCC3)c(F)c2)C(=O)O1 [Example 444, (5R)-(−)-3-[4-(Tetrahydro-2H-pyran-4-yl)-3-fluorophenyl]-2-oxo-5-oxazolidinecarboxamide]
181 to 183 °C | NC(=O)[C@H]1CN(c2cc(F)c(N3CCOCC3)c(F)c2)C(=O)O1 [Example 451, (5R)-(−)-3-[3,5-Difluoro-4-(4-morpholinyl)phenyl]-2-oxo-5-oxazolidinecarboxamide]
182 to 183 °C (dec.) | CNC(=O)[C@H]1CN(c2ccc(N3CCOCC3)c(F)c2)C(=O)O1 [Example 436, (5R)-(−)-3-[3-Fluoro-4-(4-morpholinyl)phenyl]-N-methyl-2-oxo-5-oxazolidinecarboxamide]

From patent US7049443B2, “Amide-containing compound having improved solubility and method of improving the solubility of an amide-containing compound” (Pharmacia & Upjohn Company, priority 2001, dated 2006)
